Measured values as given in patent US7700615B2, “Cell migration inhibiting compositions and methods and compositions for treating cancer” (Avolix Pharmaceuticals, Inc., priority 2002, dated 2010).

Columns and labels:
[1] = tested on: melanoma cancer cell line WM1791C; assay: Cell migration rate dose response, melanoma cancer cells; assay type: cell-based; details: concentration of 0.025 μM
Experimental: (§1) The guided cell sedimentation apparatus may be used to deposit cells onto a substrate at predetermined locations. A manifold and a substrate as described above may be stored in autoclave bags and steam autoclaved for about 1 hour to sterilize the manifold. The manifold may then be stored at about 4° C. until testing is to be performed. FIG. 3 illustrates a top schematic view of substrate 14. Prior to deposition, the surface of substrate 14 onto which the cells will be deposited is treated according to the experiment to be performed. For example, about 20 μl of a surface coating may be added to each well and incubated for about 1 hour at about 37° C. Just prior to deposition of the cells, Teflon-defined wells 24 on the substrate are hydrated in a culture media appropriate for the cells under study. Approximately 50 μl of culture media is deposited onto each well. […]
(§2) Cell migration may be monitored over time by monitoring the location of individual cells over time or measuring the radius of a circle surrounding the cells over time. […] The peripheral cells are easily detected because the cells can be deposited as a confluent monolayer within a predetermined area. […] Alternatively, designations such as numbers can be assigned to individual cells such that cells may be counted or characterized within the deposited sample of cells. […]

[2] = tested on: breast cancer cell line MDA-MB-231; assay: Cell migration rate dose response, breast cancer cells; assay type: cell-based, human; details: concentration of 2.00 μM
Experimental: as §1, §2

[3] = tested on: normal fibroblasts; assay: Cell migration of normal fibroblasts; assay type: cell-based; details: compared with control sample of untreated cells
Experimental: (§3) The guided cell sedimentation apparatus may be used to deposit cells onto a substrate at predetermined locations. A manifold and a substrate as described above may be stored in autoclave bags and steam autoclaved for about 1 hour to sterilize the manifold. The manifold may then be stored at about 4° C. until testing is to be performed. FIG. 3 illustrates a top schematic view of substrate 14. Prior to deposition, the surface of substrate 14 onto which the cells will be deposited is treated according to the experiment to be performed. For example, about 20 μl of a surface coating may be added to each well and incubated for about 1 hour at about 37° C. Just prior to deposition of the cells, Teflon-defined wells 24 on the substrate are hydrated in a culture media appropriate for the cells under study. Approximately 50 μl of culture media is deposited onto each well. […] A small aliquot of the culture media (i.e., about 1 μl) is aspirated from each channel of the manifold to eliminate air bubbles within the channels.
The cells are harvested from a culture according to any method known in the art. The cell concentration is adjusted to about 2000 cells/μl. An appropriate cell concentration may vary depending on the cell type. The cells are deposited into each channel in a volume of about 1 μl. The number of cells deposited onto the substrate varies depending upon the physical characteristics of the cells under study. For example, about 500 to about 3000 cells are deposited in each location. The manifold, substrate, and cells should stand undisturbed for a period of time of, for example, about 30 minutes. During the time, the cells will sediment. Sedimentation is generally defined as a process in which gravity causes heavier objects in a suspension to settle to the lowest part of the system. As used herein, sedimentation refers to the process in which gravity causes cells to settle through a standing column of culture media that fills the channels in the manifold. Forces greater than gravity should be avoided to prevent damage of the cells.
The manifold, substrate, and cells are transferred to a controlled temperature and atmosphere tissue culture incubator for several hours to overnight to allow the cells to attach to the surface of the substrate. Appropriate conditions for the incubator are about 37° C., about […] (CO2), and humidified air. The cells sediment onto a defined location at the bottom of the channel. Therefore, when the manifold is removed from the substrate, the cells are deposited as discs 26 of cells at predetermined locations on the substrate, as shown in FIG. 3. Such sedimentation of cells may further include any other steps of the methods as described by Berens. After the cells are attached and the manifold has been removed, the cells in each well may be re-fed with an appropriate solution.
as §2

[4] = tested on: lung cancer cell line MV522; assay: Cell migration inhibition of lung cancer cells; assay type: cell-based; details: compared with untreated control sample
Experimental: as §1, §2

[5] = tested on: MDA-MB-231 breast cancer cells; assay: scid mouse human breast tumor model (tumor growth, survival); assay type: in vivo, scid mice
Experimental: Measuring the synergy of a combination of a chemical and a chemotherapeutic agent may also be performed by evaluating the growth inhibitory effects of a chemotherapeutic agent and a cell migration inhibitor in a severe combined immunodeficient (scid) mouse human tumor model. Such measurements include screening mice for immunoglobulin (Ig) production by an enzyme-linked immunosorbent assay (ELISA). A number of mice are injected with cancer cells in saline using a subcutaneous (SC) injection. Mice with established tumors are selected and stratified according to groups including: a control group, a group treated with a chemotherapeutic agent alone, a group treated with a cell migration inhibitor alone, and one or more groups treated with various combinations of the chemotherapeutic agent and the cell migration inhibitor. The groups designated to be treated with at least the chemotherapeutic agent are injected with the chemotherapeutic agent or the chemotherapeutic agent diluent by intraperitoneal (IP, within abdominal cavity) injection on the first day of treatment. […] Tumor growth may be measured about twice a week throughout the experiment, and the tumor volume may be estimated using the following formula: [(width)^2×length]/2. […]
The scid mouse human breast tumor model was used to evaluated cancer cells of the cell line MDA-MB-231 treated with various compositions. […]

[6] = tested on: glioma cancer cell line SF 767; assay: Cell migration rate dose response, glioma cancer cells; assay type: cell-based; details: concentration of 2.00 μM
Experimental: as §1, §2

[7] = tested on: pancreatic cancer cell line MiaPaCa-2; assay: Cell migration inhibition of pancreatic cancer cells; assay type: cell-based; details: compared with untreated control sample
Experimental: as §1, §2

[8] = tested on: HUVEC cells; assay: Angiogenesis inhibition: cell migration of HUVEC cells; assay type: cell-based, Human; details: compared with untreated control sample
Experimental: as §3
The cells are harvested from a culture according to any method known in the art. The cell concentration is adjusted to about 2000 cells/μl. An appropriate cell concentration may vary depending on the cell type. The cells are deposited into each channel in a volume of about 1 μl. The number of cells deposited onto the substrate varies depending upon the physical characteristics of the cells under study. For example, about 500 to about 3000 cells are deposited in each location. The manifold, substrate, and cells should stand undisturbed for a period of time of, for example, about 30 minutes. […]
as §2

In the case of Cc1ccc(C(=O)O)cc1[N+](=O)[O-] [4-methyl-3-nitro-benzoic acid], the cell migration rate [1] is reported as “less than 50 μM/day”, the cell migration rate [2] is reported as “about 75 μm/day” and the “cell migration rate of normal fibroblasts” value [3] is reported as “essentially no effect”. For the same compound, the cell migration rate [4] was “markedly reduced migration” and the “% Survival after 100 days” value ([5]; 4-methyl-3-nitro-benzoic acid alone (30 mg/kg, IP qod×5)) was 0%.
With CCCC1CCC(C2CCC(C(=O)O)CC2)CC1 (stereo not drawn) [4′-propyl-bicyclohexyl-4-carboxylic acid] the “cell migration rate of normal fibroblasts” value [3] was “essentially no effect” and the cell migration rate [6] was “about 50 μm/day”.
In the case of COc1ccc(C2C(C(=O)c3ccc(Cl)cc3)N3c4ccccc4C=CC3C2(C#N)C#N)cc1OC (stereo not drawn) [NS20494, 1-(4-chloro-benzoyl)-2-(3,4-dimethoxy-phenyl)-1,2-dihydro-3aH-pyrrolo[1,2-a]quinoline-3,3-dicarbonitrile], the cell migration rate [7] is reported as “markedly reduced migration”, the “cell migration rate of normal fibroblasts” value [3] is reported as “essentially no effect” and the cell migration rate [8] is reported as “markedly reduced migration”.
CC(=O)O[C@H]1C(=O)[C@@]2(C)[C@H]([C@H](OC(=O)c3ccccc3)[C@]3(O)C[C@H](OC(=O)[C@H](O)[C@@H](NC(=O)c4ccccc4)c4ccccc4)C(C)=C1C3(C)C)[C@]1(OC(C)=O)CO[C@@H]1C[C@@H]2O [Taxol, paclitaxel, reference compound] was tested, and the “% Survival after 100 days” value ([5]; Taxol alone (10 mg/kg, IP qod×5)) was 0%.
For N#Cc1c(NC(=O)c2cccc(I)c2)sc2c1CCCC2 [compound 301, N-(3-cyano-4,5,6,7-tetrahydro-benzo[b]thiophen-2-yl)-3-iodo-benzamide], the “cell migration rate of normal fibroblasts” value [3] was “essentially no effect” and the cell migration rate [8] was “markedly reduced migration”.
C1=C(c2ccc3c(c2)OCCO3)NN=C(Nc2ccccc2)S1 [compound 302, [5-(2,3-dihydro-benzo[1,4]dioxin-6-yl)-4H-[1,3,4]thiadiazin-2-yl]-phenyl-amine] was tested, and the “cell migration rate of normal fibroblasts” value [3] was “essentially no effect” and the cell migration rate [8] was “markedly reduced migration”.
